ChEMBL document CHEMBL1201862, “PubChem BioAssay data set” (2004)
“And” between values parts separate entries of the source, which are not always exact repeats. Equal entries are not always repeated. The source made the active and inactive calls.

Columns and labels:
Large T antigen = Large T antigen (Simian virus 40, UniProt P03070); type: functional, Betapolyomavirus macacae;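 also: Confirmatory-stage PubChem screen for compounds that inhibit SV40 T antigen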
[1] = target: T1, Rac GTPase-activating protein 1 (Homo sapiens, UniProt Q9H0H5); test: blockers of MgcRacGAP-driven Rac1 GTP hydrolysis – biochemical, ADP Hunter fluorescence, primary and confirmatory, confirmation (AID 624330); type: functional
T1 sequence (Q9H0H5 whole entry): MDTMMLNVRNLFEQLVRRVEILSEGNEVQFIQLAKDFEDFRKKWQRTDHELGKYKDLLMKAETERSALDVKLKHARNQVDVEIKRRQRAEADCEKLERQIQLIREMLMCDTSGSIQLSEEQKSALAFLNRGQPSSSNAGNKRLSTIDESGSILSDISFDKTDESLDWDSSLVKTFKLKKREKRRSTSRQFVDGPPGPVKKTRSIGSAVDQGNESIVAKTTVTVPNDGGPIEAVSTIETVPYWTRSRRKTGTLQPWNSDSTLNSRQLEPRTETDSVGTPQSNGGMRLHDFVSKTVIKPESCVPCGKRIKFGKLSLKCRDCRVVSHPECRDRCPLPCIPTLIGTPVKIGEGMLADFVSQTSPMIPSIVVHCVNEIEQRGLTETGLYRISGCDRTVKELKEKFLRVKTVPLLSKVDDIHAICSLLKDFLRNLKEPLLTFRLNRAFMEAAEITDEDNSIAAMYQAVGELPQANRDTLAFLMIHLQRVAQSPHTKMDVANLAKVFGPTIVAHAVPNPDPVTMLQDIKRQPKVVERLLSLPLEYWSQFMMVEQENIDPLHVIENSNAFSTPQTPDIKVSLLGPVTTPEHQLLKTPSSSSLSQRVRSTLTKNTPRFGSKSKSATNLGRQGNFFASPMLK

H9c2 = test: cells; type: functional, cell-based; conditions: Rattus norvegicus, H9c2, Myocardium;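 also: confirmatory concentration-response retest of ultra-high-throughput screening hits for modulation of myocardial damage; cell death induced by hydrogen peroxide oxidative stress; compound pretreatment for 60 min then peroxide exposure for 2 h; potency is for protecting the cells against peroxide damage rather than for killing them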
Cytochrome P450 3A4 = Cytochrome P450 3A4 (Homo sapiens, UniProt P08684);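 also: CYP3A4 tested as one member of a cytochrome P450 panel screen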
[2] = target: FAD-linked sulfhydryl oxidase ALR (Homo sapiens, UniProt P55789); test: ALR-catalysed DTT oxidation blockers – biochemical, H2O2 detection, luminescence, cherry-pick, dose response (AID 493248)
Cytochrome P450 2D6 = Cytochrome P450 2D6 (Homo sapiens, UniProt P10635);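 also: CYP2D6 member of a cytochrome P450 panel assay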
[3] = target: T2, Polyadenylate-binding protein 1 (Homo sapiens, UniProt P11940); test: MLLE domain peptide-binding blockers, IC50 – biochemical, fluorescence polarization, FITC-PAM2 peptide, dose response (AID 602259); type: functional; conditions: read-out: IC50_Mean
[4] = target: T3, Zinc finger protein mex-5 (Caenorhabditis elegans, UniProt Q9XUB2); test: potency of MEX-5 RNA-binding blockers – biochemical, C. elegans, fluorescence polarization, dose response (AID 1960)
T3 sequence (Q9XUB2 whole entry): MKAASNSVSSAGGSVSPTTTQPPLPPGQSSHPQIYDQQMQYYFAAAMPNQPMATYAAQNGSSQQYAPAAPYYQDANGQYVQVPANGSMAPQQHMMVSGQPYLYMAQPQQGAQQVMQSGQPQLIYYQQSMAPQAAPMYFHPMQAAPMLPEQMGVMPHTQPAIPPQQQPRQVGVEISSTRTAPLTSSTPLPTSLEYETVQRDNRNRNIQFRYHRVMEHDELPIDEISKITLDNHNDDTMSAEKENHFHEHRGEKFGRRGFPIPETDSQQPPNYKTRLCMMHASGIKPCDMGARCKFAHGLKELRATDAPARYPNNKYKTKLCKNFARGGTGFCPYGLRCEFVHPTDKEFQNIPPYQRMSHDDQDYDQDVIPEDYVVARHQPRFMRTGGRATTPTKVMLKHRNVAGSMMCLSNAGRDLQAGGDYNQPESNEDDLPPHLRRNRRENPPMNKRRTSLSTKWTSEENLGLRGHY

[5] = target: T2, Polyadenylate-binding protein 1; test: MLLE binding blockers, Cy5 peptide tracer – biochemical, fluorescence polarization, Cy5-PAM2 peptide, secondary, miRNA deadenylation inhibitor project, dose response (AID 602260); type: functional; conditions: read-out: IC50_Mean
[6] = target: T4, RNA-binding protein pos-1 (Caenorhabditis elegans, UniProt G5EF15); test: disruptors of C. elegans POS-1 RNA interaction – biochemical, fluorescence polarization, dose response (AID 1964);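 also: purified POS-1 fused to maltose binding protein made in E. coli; potency of compounds blocking POS-1 binding to fluorescent RNA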
T4 sequence (G5EF15 whole entry): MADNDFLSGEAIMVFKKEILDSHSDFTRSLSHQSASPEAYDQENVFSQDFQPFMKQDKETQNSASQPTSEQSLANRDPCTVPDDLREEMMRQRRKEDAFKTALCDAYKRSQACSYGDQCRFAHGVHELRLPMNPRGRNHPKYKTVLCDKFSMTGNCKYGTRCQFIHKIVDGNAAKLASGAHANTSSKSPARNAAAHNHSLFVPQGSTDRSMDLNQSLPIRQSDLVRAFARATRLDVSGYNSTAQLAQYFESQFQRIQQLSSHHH

[7] = fluconazole-exposed Candida albicans growth modulators – fluorescence, retest, confirmation (AID 2467); type: functional, cell-based
[8] = NIH-3T3 fibroblast cytotoxicity, dose response, cytotoxicity control, cell-based, fluorescence, Alamar Blue, secondary assay (AID 2327); type: functional;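 also: NIH-3T3 mouse fibroblasts cultured with fluconazole at 8 µg/mL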
[9] = viability of PTEN-deleted HCT116 cells – cell-based, HCT116 PTEN knockout, dose response (AID 1047); type: functional;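 also: HCT116 colon tumor cells with PTEN knocked out; cells exposed to compound for 60 hours before readout; potency for loss of cell viability measured by luminescence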
[10] = viability of HCT116 lacking mutant beta-catenin – cell-based, human colon tumor, dose response (AID 1045); type: functional;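 also: HCT116 colon tumor cells with beta catenin knocked out; cells exposed to compound for 60 hours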
Cytochrome P450 2C9 = Cytochrome P450 2C9 (Homo sapiens, UniProt P11712)
Cytochrome P450 2C19 = Cytochrome P450 2C19 (Homo sapiens, UniProt P33261); test: Cytochrome panel assay with activity outcomes. Panel member name: p450-cyp2c19 Compounds with AC50 equal or less than 10 uM are considered active; type: functional
Cytochrome P450 1A2 = target: T5, Cytochrome P450 1A2 (Homo sapiens, UniProt P05177);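 also: PubChem cytochrome P450 panel assay, CYP1A2 panel member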
T5 sequence (P05177 whole entry): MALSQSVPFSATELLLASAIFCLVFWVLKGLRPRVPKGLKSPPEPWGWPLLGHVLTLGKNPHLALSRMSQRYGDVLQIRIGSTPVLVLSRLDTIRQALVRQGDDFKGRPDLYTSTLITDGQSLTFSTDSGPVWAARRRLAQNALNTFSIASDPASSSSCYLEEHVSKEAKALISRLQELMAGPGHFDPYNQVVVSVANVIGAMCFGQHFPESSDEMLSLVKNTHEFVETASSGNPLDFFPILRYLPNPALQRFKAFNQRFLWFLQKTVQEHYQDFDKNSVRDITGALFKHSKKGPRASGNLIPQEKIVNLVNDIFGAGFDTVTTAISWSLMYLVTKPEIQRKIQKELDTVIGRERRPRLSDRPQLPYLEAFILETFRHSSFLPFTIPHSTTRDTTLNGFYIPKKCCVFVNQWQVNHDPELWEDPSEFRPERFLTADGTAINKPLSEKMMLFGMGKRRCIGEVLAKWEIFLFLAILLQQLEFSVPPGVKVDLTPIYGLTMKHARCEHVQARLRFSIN

Chain of Cytochrome P450 2D6 (P10635 whole entry, the tested form may be a part): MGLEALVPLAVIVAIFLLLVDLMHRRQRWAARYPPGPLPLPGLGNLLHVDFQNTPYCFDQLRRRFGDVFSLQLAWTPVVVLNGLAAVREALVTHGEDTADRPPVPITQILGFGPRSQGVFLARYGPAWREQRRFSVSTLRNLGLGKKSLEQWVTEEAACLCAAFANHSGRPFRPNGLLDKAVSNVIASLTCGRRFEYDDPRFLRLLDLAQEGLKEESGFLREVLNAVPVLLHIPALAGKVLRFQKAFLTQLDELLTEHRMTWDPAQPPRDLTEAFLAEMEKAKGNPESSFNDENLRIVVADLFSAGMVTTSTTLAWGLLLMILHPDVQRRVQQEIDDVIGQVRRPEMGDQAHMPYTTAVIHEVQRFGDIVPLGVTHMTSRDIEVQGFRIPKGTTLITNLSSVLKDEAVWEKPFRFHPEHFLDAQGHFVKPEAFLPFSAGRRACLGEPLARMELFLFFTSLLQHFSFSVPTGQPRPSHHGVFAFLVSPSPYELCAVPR
Chain of FAD-linked sulfhydryl oxidase ALR (P55789 whole entry): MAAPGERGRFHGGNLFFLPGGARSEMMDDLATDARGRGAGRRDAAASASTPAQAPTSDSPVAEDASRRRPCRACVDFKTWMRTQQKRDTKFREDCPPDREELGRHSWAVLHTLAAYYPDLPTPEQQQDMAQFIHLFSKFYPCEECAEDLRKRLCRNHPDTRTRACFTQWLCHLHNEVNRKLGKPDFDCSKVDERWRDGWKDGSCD
Chain of Large T antigen (P03070 whole entry): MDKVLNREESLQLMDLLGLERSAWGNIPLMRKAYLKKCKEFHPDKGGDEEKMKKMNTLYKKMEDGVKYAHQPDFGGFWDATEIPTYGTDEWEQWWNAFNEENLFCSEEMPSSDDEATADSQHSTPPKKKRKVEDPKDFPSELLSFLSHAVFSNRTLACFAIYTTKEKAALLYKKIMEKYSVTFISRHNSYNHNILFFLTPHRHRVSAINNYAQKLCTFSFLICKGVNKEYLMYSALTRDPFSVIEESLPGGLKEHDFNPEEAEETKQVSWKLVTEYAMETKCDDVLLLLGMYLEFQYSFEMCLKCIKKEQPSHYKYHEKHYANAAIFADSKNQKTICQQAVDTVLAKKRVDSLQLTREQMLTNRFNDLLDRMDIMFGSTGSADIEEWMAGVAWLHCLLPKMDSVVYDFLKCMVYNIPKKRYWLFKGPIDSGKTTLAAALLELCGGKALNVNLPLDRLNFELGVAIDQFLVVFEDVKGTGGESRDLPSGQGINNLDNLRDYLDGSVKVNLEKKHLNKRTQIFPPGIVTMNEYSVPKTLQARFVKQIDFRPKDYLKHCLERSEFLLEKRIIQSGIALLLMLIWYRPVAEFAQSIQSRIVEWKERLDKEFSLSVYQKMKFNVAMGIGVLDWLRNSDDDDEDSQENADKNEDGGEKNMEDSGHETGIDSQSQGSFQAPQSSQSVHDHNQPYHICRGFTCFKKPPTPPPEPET
T2 sequence (P11940 whole entry, the tested form may be a part): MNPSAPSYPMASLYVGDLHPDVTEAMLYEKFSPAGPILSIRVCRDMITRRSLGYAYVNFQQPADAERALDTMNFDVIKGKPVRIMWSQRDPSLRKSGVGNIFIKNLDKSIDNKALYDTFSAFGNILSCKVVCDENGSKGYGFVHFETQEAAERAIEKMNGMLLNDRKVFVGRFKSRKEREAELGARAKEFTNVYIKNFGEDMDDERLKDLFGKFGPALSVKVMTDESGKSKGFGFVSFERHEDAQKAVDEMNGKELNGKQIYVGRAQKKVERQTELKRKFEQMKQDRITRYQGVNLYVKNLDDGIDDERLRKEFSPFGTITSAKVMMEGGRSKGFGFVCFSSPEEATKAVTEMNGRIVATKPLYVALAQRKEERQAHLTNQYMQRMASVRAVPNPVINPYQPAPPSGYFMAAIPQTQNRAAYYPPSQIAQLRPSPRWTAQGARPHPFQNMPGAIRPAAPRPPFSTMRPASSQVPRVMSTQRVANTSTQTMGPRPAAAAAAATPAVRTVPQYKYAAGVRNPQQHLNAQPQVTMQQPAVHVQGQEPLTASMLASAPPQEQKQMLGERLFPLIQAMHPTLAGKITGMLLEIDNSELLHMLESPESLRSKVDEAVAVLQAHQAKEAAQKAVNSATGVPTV
Chain of Cytochrome P450 3A4 (P08684 whole entry): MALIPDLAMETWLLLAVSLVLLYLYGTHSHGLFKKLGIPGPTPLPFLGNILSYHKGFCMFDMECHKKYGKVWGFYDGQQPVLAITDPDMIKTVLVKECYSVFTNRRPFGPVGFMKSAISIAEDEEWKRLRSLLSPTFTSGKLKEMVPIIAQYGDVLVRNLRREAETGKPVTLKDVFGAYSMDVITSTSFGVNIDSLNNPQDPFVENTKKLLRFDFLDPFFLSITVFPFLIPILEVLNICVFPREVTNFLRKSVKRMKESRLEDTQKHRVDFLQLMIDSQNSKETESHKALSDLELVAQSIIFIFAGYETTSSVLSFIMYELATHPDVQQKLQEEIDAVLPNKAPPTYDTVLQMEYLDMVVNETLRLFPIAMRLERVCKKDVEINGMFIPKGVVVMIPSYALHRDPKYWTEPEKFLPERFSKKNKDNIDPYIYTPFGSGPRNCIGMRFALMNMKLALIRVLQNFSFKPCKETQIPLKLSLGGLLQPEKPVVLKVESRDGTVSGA
Chain of Cytochrome P450 2C9 (P11712 whole entry): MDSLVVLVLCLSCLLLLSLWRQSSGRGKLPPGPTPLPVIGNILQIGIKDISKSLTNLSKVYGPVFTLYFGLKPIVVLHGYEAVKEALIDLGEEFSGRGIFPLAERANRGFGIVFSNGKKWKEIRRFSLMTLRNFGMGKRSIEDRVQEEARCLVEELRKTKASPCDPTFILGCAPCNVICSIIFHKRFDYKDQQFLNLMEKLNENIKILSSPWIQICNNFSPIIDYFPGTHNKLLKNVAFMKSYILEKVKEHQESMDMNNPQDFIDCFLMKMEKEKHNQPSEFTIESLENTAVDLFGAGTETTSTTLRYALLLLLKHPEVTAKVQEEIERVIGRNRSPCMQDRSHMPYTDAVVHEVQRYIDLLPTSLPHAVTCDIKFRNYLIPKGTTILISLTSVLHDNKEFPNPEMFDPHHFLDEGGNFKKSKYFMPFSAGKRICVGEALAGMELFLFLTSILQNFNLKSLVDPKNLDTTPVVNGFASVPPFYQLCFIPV
Chain of Cytochrome P450 2C19 (P33261 whole entry): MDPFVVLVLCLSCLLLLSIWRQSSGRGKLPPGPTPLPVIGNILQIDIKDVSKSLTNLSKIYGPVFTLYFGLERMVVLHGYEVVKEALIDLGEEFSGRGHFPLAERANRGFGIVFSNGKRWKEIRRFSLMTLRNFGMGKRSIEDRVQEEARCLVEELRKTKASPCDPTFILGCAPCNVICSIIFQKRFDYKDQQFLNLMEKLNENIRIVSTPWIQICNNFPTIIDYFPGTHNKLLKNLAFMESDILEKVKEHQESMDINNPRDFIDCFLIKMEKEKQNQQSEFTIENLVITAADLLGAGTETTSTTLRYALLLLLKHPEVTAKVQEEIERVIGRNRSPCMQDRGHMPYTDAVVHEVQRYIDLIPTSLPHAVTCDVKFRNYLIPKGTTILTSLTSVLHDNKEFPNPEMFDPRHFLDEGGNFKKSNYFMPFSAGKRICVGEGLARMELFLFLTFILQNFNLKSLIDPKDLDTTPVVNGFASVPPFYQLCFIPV

COC(=O)CC1SC(=O)NC1=Nc1ccc(O)cc1 (stereo not given)
IC50 (Large T antigen): 16.8 µM (active)
IC50 [1]: 52.9 µM (active)

COc1ccc(Cl)cc1NC(=O)CN(C)C(=O)CCc1nc(O)c2ccccc2n1
IC50 (H9c2): > 79 µM (inactive)

CC(=O)Nc1ccc(N2CCCCC2)cc1
AC50 (Cytochrome P450 3A4): 0.251 µM (inconclusive)
IC50 (Large T antigen): 13.2 µM (active)
AC50 [2]: 2.96 µM (active)

CC(=O)c1ccc(N2CCN(C(=O)c3cc(-c4cccnc4)nc4ccc(Br)cc34)CC2)cc1
IC50 (H9c2): > 79 µM (inactive)

Cc1ccc(NC(=O)c2cc(-c3cccs3)nc3ccccc23)nc1
IC50 (H9c2): > 79 µM (inactive)

OC(c1ccccc1)(c1ccccc1)C1CCNCC1 [AZACYCLONOL]
AC50 (Cytochrome P450 2D6): 15.8 µM (inconclusive)

CC(=O)Nc1ccc(-n2cc(-c3ccccc3)[nH]c2=S)cc1
AC50 [2]: 6.42 µM (active)

COc1ccc(NC(=O)c2ccc(-c3ccc(-c4noc(C)n4)cc3C)cc2)cc1N1CCN(C)CC1 [GR-127935]
AC50 (Cytochrome P450 2D6): 20 µM (inconclusive) and 39.8 µM (inconclusive)

O=C(NCc1ccccn1)C(=O)NCC(c1ccco1)N1CCN(c2ccc(F)cc2)CC1 (stereo not given)
AC50 [2]: 13.2 µM (active)

N#CC1=C(N)C2=C(N3CCCCC3)CCCC2C1(C#N)C#N (stereo not given)
IC50 (Large T antigen): 9.99 µM (active)
IC50 [3]: > 66 µM (inactive)
EC50 [4]: 77.1 µM (active)
IC50 [5]: > 66 µM (inactive)
EC50 [6]: 89.4 µM (active)

C/C(=N\NC(=O)CCC(=O)Nc1ccc(C)c(C)c1)C1CC1
EC50 [7]: > 38 µM (not active)
EC50 [8]: > 150 µM (inactive)

CC(CCc1ccccc1)NC(=O)CN1CCN(c2ccc(O)cc2)CC1 (stereo not given)
EC50 [8]: 36.2 µM (active)

CC(=O)Oc1ccc(-c2cccc(C(=O)N(C)c3ccc(O)cc3)c2)cc1
AC50 [2]: 22.9 µM (active)

COc1ccc2nc(Nc3ccccc3OC)sc2c1
AC50 [2]: 1.71 µM (active)

Cc1ccc(C)c(NC(=O)C(Sc2ncnc3ccccc23)c2ccccc2)c1 (stereo not given)
EC50 [9]: 111 µM (active)
EC50 [10]: 126 µM (active)
IC50 (H9c2): 29.1 µM (active)

COc1cc(/C=N/NC(=O)c2cccc([N+](=O)[O-])c2)ccc1O
IC50 (Large T antigen): 5.73 µM (active)
IC50 [1]: 29 µM (active)

Cc1ccc(-c2csc(N)n2)s1
AC50 [2]: 0.732 µM (active)

Cc1ccc(-c2nnc(O)c3ccccc23)cc1S(=O)(=O)NC(C)(C)C
IC50 (H9c2): > 79 µM (inactive)

COc1ccc2cc(CCl)c(Cl)nc2c1
AC50 [2]: 5.78 µM (active)

Cc1ccccc1C(C(=O)NCc1ccccc1)N(Cc1ccco1)C(=O)c1ccccn1 (stereo not given)
IC50 (H9c2): > 79 µM (inactive)

CCCC(=O)Nc1ccc(N2CCN(CC)CC2)c(Cl)c1
AC50 (Cytochrome P450 2D6): 20 µM (inconclusive)
AC50 (Cytochrome P450 2C9): 0.178 µM (inconclusive)

CCn1c(SCC(=O)N2CCN(c3ccccc3)CC2)nc2c(c1=O)SC(C)C2 (stereo not given)
IC50 (H9c2): 11.9 µM (active)

Cc1ccc(S(=O)(=O)NC(CC(C)C)C(=O)Oc2ccc3c4c(c(=O)oc3c2)CCC4)cc1 (stereo not given)
AC50 (Cytochrome P450 2D6): 15.8 µM (inconclusive)

CCCOc1ccc(C(=O)OCCN(CC)CC)cc1N [PROPARACAINE]
AC50 (Cytochrome P450 2C19): inconclusive
AC50 (Cytochrome P450 2D6): 6.31 µM (inconclusive)

Cc1ccc(SCC(=O)Nc2ccc3c(c2)C(=O)N(C)C3=O)cc1
EC50 [7]: > 38 µM (not active)
EC50 [8]: > 150 µM (inactive)

O=C1CSC(c2ccccc2[N+](=O)[O-])N1c1cccc(F)c1 (stereo not given)
AC50 [2]: 0.689 µM (active)

CN(C)c1nc(Oc2ccc(/C=N/O)cc2)nc(N(C)C)n1
AC50 [2]: 0.156 µM (active)

O=C(COc1ccccc1Cl)NNC(=O)Cn1[nH]c(=O)c2ccccc2c1=O
IC50 (H9c2): > 79 µM (inactive)

Cc1nn(Cc2c(F)c(F)c(F)c(F)c2F)c(C)c1NC(=O)c1cccc(COc2ccccc2Cl)c1
AC50 (Cytochrome P450 2D6): 0.794 µM (inconclusive)
AC50 (Cytochrome P450 1A2): 17.8 µM (inconclusive)

O=C(NC(Cc1ccccc1)C(=O)NCc1ccccn1)c1ccco1 (stereo not given)
EC50 [7]: > 38 µM (not active)
EC50 [8]: > 150 µM (inactive)

COC(=O)Cc1cc(=O)n(-c2nc3ccccc3s2)[nH]1
EC50 [7]: 21.7 µM (active)
EC50 [8]: > 150 µM (inactive)

CC1CCCC(C)N1C(=O)c1ccccc1Nc1ccc(SC(F)F)cc1 (stereo not given)
AC50 (Cytochrome P450 2D6): 0.631 µM (inconclusive)
AC50 (Cytochrome P450 1A2): 17.8 µM (inconclusive)

O=C(NCc1ccco1)c1ccccc1NS(=O)(=O)c1ccc(Br)s1
EC50 [7]: 2.35 µM (active)
AC50 (Cytochrome P450 1A2): 14.1 µM (inconclusive)
EC50 [8]: > 160 µM (inactive)

CN(C)Cc1ccccc1-c1cncnc1NC1CC1
AC50 (Cytochrome P450 2D6): 25.1 µM (inconclusive)

CC(C)(C)NC(=O)COC(=O)c1c2c(nc3ccccc13)CCC2
IC50 (H9c2): 6.79 µM (active)
